Legend:
Assay type in all cases: functional
[1] = system: Mycobacterium tuberculosis; assay: Antimicrobial activity against Mycobacterium tuberculosis H190
[2] = system: Mycobacterium tuberculosis; assay: Antimicrobial activity against Mycobacterium tuberculosis H37Rv
[3] = system: Staphylococcus aureus; assay: Antimicrobial activity against Staphylococcus aureus ATCC 25923
[4] = system: Mycobacterium tuberculosis; assay: Antimicrobial activity against Mycobacterium tuberculosis H160
[5] = system: Staphylococcus aureus; assay: Antimicrobial activity against Staphylococcus aureus 52
[6] = system: Staphylococcus aureus; assay: Antimicrobial activity against Staphylococcus aureus ATCC 105487
[7] = system: Staphylococcus aureus; assay: Antimicrobial activity against Staphylococcus aureus 85
[8] = system: Staphylococcus aureus; assay: Antimicrobial activity against Staphylococcus aureus 87
[9] = system: Pseudomonas aeruginosa; assay: Antimicrobial activity against Pseudomonas aeruginosa ATCC 27753
[10] = system: Bacillus subtilis; assay: Antimicrobial activity against Bacillus subtilis ATCC 6633
[11] = system: Enterococcus faecalis; assay: Antimicrobial activity against Enterococcus faecalis ATCC 29212
[12] = system: Kluyveromyces marxianus; assay: Antimicrobial activity against Candida pseudotropicalis
[13] = system: Candida albicans; assay: Antimicrobial activity against Candida albicans
[14] = system: Escherichia coli; assay: Antimicrobial activity against Escherichia coli ATCC 25922

Measured: MIC

O=C(O)c1cn(C2CC2)c2cc(N3CCNCC3)c(F)cc2c1=O [CIPROFLOXACIN]
0.25 µg/mL: [6] | [10]
> 4 µg/mL: [5]
1 µg/mL: [9] | [11]
not listed: [12] | [13] | [14]
0.5 µg/mL: all other assays above

CCCCC/C=C/C/C=C/CCCCCCCC(=O)OCC(CO[C@@H]1O[C@H](CO)[C@@H](O)[C@H](O)[C@H]1O)OC(=O)CCCCCCC/C=C/C/C=C/CCCCC (mixture of isomers)
64 µg/mL: [2] | [4] | [8]
128 µg/mL: [1] | [10]
> 128 µg/mL: all other assays above

Clc1ccc(COC(Cn2ccnc2)c2ccc(Cl)cc2Cl)c(Cl)c1 (centres undefined) [MICONAZOLE]
8 µg/mL: [13]
0.5 µg/mL: [12]

CCCCC/C=C/C/C=C/CCCCCCCC(=O)OC(COC(=O)CCCCCCC)CO[C@@H]1O[C@H](CO)[C@@H](O)[C@H](O)[C@H]1O (mixture of isomers)
64 µg/mL: [1] | [2] | [8]
128 µg/mL: [4] | [10]
> 128 µg/mL: all other assays above

CCCCCCCCCC(=O)OCC(CO[C@@H]1O[C@H](CO)[C@@H](O)[C@H](O)[C@H]1O)OC(=O)CCCCCCCCC (mixture of isomers)
128 µg/mL: [2]
64 µg/mL: [1] | [4] | [8]
> 128 µg/mL: all other assays above

CC/C=C/C/C=C/C/C=C/CCCCCCCC(=O)OC(COC(=O)CCCCCCCCC)CO[C@@H]1O[C@H](CO)[C@@H](O)[C@H](O)[C@H]1O (mixture of isomers)
32 µg/mL: [8]
64 µg/mL: [7]
> 128 µg/mL: all other assays above

CCCCCCCCCCCCCCCCCC(=O)OCC(CO[C@@H]1O[C@H](CO)[C@@H](O)[C@H](O)[C@H]1O)OC(=O)CCCCCCCCCCCCCCCCC (mixture of isomers)
> 128 µg/mL: all assays above

CCCCCCCCCCCCCC(=O)OCC(CO[C@@H]1O[C@H](CO)[C@@H](O)[C@H](O)[C@H]1O)OC(=O)CCCCCCCCCCCCC (some centres undefined)
> 128 µg/mL: all assays above

CCCCCCCCCCCC(=O)OCC(CO[C@@H]1O[C@H](CO)[C@@H](O)[C@H](O)[C@H]1O)OC(=O)CCCCCCCCCCC (mixture of isomers)
> 128 µg/mL: all assays above

CC/C=C/C/C=C/C/C=C/CCCCCCCC(=O)OCC(CO[C@@H]1O[C@H](CO)[C@@H](O)[C@H](O)[C@H]1O)OC(=O)CCCCCCC/C=C/C/C=C/C/C=C/CC (some centres undefined)
> 128 µg/mL: all assays above

CCCCCCCC/C=C/CCCCCCCC(=O)OC(COC(=O)CCCCCCC)CO[C@@H]1O[C@H](CO)[C@@H](O)[C@H](O)[C@H]1O (mixture of isomers)
64 µg/mL: [1] | [2] | [4] | [8]
128 µg/mL: [10]
> 128 µg/mL: all other assays above

CCCCCCCC(=O)OCC(CO[C@@H]1O[C@H](CO)[C@@H](O)[C@H](O)[C@H]1O)OC(=O)CCCCCCC (mixture of isomers)
16 µg/mL: [3] | [7] | [8] | [10]
64 µg/mL: [1] | [2] | [4]
32 µg/mL: [6] | [11]
> 128 µg/mL: all other assays above

CCCCC/C=C/C/C=C/CCCCCCCC(=O)OC(COC(=O)CCCCCCCCC)CO[C@@H]1O[C@H](CO)[C@@H](O)[C@H](O)[C@H]1O (mixture of isomers)
> 32 µg/mL: [8]
64 µg/mL: [11]
128 µg/mL: [10]
32 µg/mL: [6] | [7]
> 128 µg/mL: all other assays above

CCCCCCCC/C=C/CCCCCCCC(=O)OC(COC(=O)CCCCCCCCC)CO[C@@H]1O[C@H](CO)[C@@H](O)[C@H](O)[C@H]1O (mixture of isomers)
8 µg/mL: [3]
128 µg/mL: [7]
32 µg/mL: [10]
> 128 µg/mL: all other assays above

CCCCCCCC/C=C/CCCCCCCC(=O)OCC(CO[C@@H]1O[C@H](CO)[C@@H](O)[C@H](O)[C@H]1O)OC(=O)CCCCCCC/C=C/CCCCCCCC (mixture of isomers)
> 128 µg/mL: all assays above

CC/C=C/C/C=C/C/C=C/CCCCCCCC(=O)OC(COC(=O)CCCCCCC)CO[C@@H]1O[C@H](CO)[C@@H](O)[C@H](O)[C@H]1O (mixture of isomers)
64 µg/mL: [1] | [2] | [8]
128 µg/mL: [4] | [10]
> 128 µg/mL: all other assays above
